In PMC2833169, “Anti-malarial activity of a non-piperidine library of next-generation quinoline methanols” (Malaria Journal, 2010):
In brackets after ≈: the same amount, converted by molar mass. Read-outs that look alike come from different tables or passages of the source.

Assays:
[1] = test system: P. falciparum strain TM90C2A; assay: labeled hypoxanthine susceptibility assay, P. falciparum TM90C2A; type: cell-based, Plasmodium falciparum; settings: for CSI (C2A/W2): ratio of IC90 C2A to IC90 W2
Experimental: (§1) The in vitro activities of quinoline methanols against P. falciparum strains W2, D6, TM91C235, and TM90C2A were evaluated using the traditional labeled hypoxanthine assay of Desjardins et al as modified by Milhous et al. These four P. falciparum strains were selected since they have various levels of resistance to conventional anti-malarials.

[2] = test system: P. falciparum strain TM91C235; assay: labeled hypoxanthine susceptibility assay, P. falciparum TM91C235; type: cell-based, Plasmodium falciparum; settings: for IC90: Plasmodium falciparum, read-out: PF C235 IC90
Experimental: as §1

P. falciparum strain D6 = assay: labeled hypoxanthine susceptibility assay, P. falciparum D6; type: cell-based, Plasmodium falciparum; settings: for IC90: Plasmodium falciparum, D6, read-out: PF D6 IC90, P. falciparum D6
Experimental: as §1

[3] = test system: rodent macrophage (RAW) cell line; assay: cells; settings: read-out: Macrophage IC50
Experimental: General cytotoxicity was assessed by first determining LC50 's against a rodent macrophage (RAW) cell line using the 3-(4,5-dimethylthiazole-2-yl)-2,5-diphenyltetrazolium bromide (MTT) assay as described in one of our earlier studies. This screen was conducted to identify compounds that may require de-selection due to generalized toxicity. […] In vitro neurocytotoxicity was assessed by determining LC50s against primary mouse neurons using the MTT assay as described previously. Inhibition of the A2A and A1 receptors was determined at 200 nM in duplicate by Caliper Biosciences (Hanover, Maryland).

P. falciparum strain W2 = assay: labeled hypoxanthine susceptibility assay, P. falciparum W2; type: cell-based, Plasmodium falciparum; settings: for IC90: Plasmodium falciparum, W2, read-out: PF W2 IC90
Experimental: as §1

[4] = Plasmodium falciparum, TM90C2A, read-out: IC90 PfC2A
[5] = Plasmodium falciparum, TM90C2A, read-out: PF C2A IC90

In the case of `CCCCN(CCCC)CC(O)c1cc(C(F)(F)F)nc2c(C(F)(F)F)cccc12` (racemic) [WR176990], the IC90 [1, 4] is reported as 44 nM.

`CCCNCC(O)c1cc(C(F)(F)F)nc2c(C(F)(F)F)cccc12` (racemic) [WR183544] showed an IC90 [1, 4] of 40 nM.

`OC(CNC1CCCCC1)c1cc(C(F)(F)F)nc2c(C(F)(F)F)cccc12` (racemic) [WR308248] was tested, and the IC90 [1, 4] was 66 nM.

`OC(CNCCC1=CCCCC1)c1cc(C(F)(F)F)nc2c(C(F)(F)F)cccc12` (racemic) [WR308249] showed an IC90 [1, 4] of 160 nM.

`OC(CNCCc1ccccc1)c1cc(C(F)(F)F)nc2c(C(F)(F)F)cccc12` (racemic) [WR308253] gave an IC90 [1, 4] of 99 nM.

For `CCN(CC)CC(O)c1cc(C(F)(F)F)nc2c(C(F)(F)F)cccc12` (racemic) [WR308254], the IC90 [1, 4] was 176 nM.

`CC(C)N(CC(O)c1cc(C(F)(F)F)nc2c(C(F)(F)F)cccc12)C(C)C` (racemic) [WR308277] gave an IC90 [1, 4] of 75 nM.

For `Cc1ccc(CNCC(O)c2cc(C(F)(F)F)nc3c(C(F)(F)F)cccc23)cc1` (racemic) [WR308375], the IC90 [1, 4] was 103 nM.

`CCCCN(CCC#N)CC(O)c1cc(C(F)(F)F)nc2c(C(F)(F)F)cccc12` (racemic) [WR308485] was tested, and the IC90 [1, 4] was 204 nM.

Compound `N#CCCN(CC(O)c1cc(C(F)(F)F)nc2c(C(F)(F)F)cccc12)C1CCCCC1` (racemic) [WR308486] has an IC90 [1, 4] of 144 nM.

`OC(CNc1nc2ccccc2[nH]1)c1cc(C(F)(F)F)nc2c(C(F)(F)F)cccc12` (racemic) [WR308491] was tested, and the IC90 [1, 4] was 190 nM.

With `CC1CCN(CC(C)(C)NCC(O)c2cc(C(F)(F)F)nc3c(C(F)(F)F)cccc23)CC1` (racemic) [WR308592] the IC90 [1, 4] was 137 nM.

`CCCCN(CCCC)CC(O)c1cc(C(F)(F)F)nc2c(C(F)(F)F)cccc12` (racemic) [compound 176990] showed an IC90 [2] of 0.027 µg/mL (≈ 0.0619 µM), an IC90 (P. falciparum strain D6) of 0.011 µg/mL (≈ 0.0252 µM) and an IC50 ([3]; Mus musculus, Macrophage) of 46 µM. For the same compound, the IC90 [1, 5] was 0.019 µg/mL, the “CSI (C2A/W2)” value [1] was 7.9 and the IC90 (P. falciparum strain W2) was 0.00239 µg/mL (≈ 0.00548 µM).

For `CCCCNCC(O)c1cc(C(F)(F)F)nc2c(C(F)(F)F)cccc12` (racemic) [compound 177000], the IC90 [2] was 0.00891 µg/mL (≈ 0.0234 µM), the IC90 (P. falciparum strain D6) was 0.00658 µg/mL (≈ 0.0173 µM) and the IC50 ([3]; Mus musculus, Macrophage) was 7.8 µM. For the same compound, the IC90 [1, 5] was 0.0123 µg/mL, the “CSI (C2A/W2)” value [1] was 7.3 and the IC90 (P. falciparum strain W2) was 0.00169 µg/mL (≈ 0.00444 µM).

Work on `CCCNCC(O)c1cc(C(F)(F)F)nc2c(C(F)(F)F)cccc12` (racemic) [compound 183544] yielded an IC90 [2] of 0.014 µg/mL (≈ 0.0382 µM), an IC90 (P. falciparum strain D6) of 0.0067 µg/mL (≈ 0.0183 µM) and an IC90 [1, 5] of 0.016 µg/mL. For the same compound, the “CSI (C2A/W2)” value [1] was 14.5 and the IC90 (P. falciparum strain W2) was 0.0011 µg/mL (≈ 0.003 µM).

Work on `OC(CNC1CCCCC1)c1cc(C(F)(F)F)nc2c(C(F)(F)F)cccc12` (racemic) [compound 308248] yielded an IC90 [2] of 0.0144 µg/mL (≈ 0.0353 µM), an IC90 (P. falciparum strain D6) of 0.00957 µg/mL (≈ 0.0235 µM) and an IC50 ([3]; Mus musculus, Macrophage) of 19.8 µM. The IC90 [1, 5] was 0.027 µg/mL, the “CSI (C2A/W2)” value [1] was 10.8 and the IC90 (P. falciparum strain W2) was 0.00249 µg/mL (≈ 0.00613 µM).

With `OC(CNCCC1=CCCCC1)c1cc(C(F)(F)F)nc2c(C(F)(F)F)cccc12` (racemic) [compound 308249] the IC90 [2] was 0.0392 µg/mL (≈ 0.0906 µM), the IC90 (P. falciparum strain D6) was 0.033 µg/mL (≈ 0.0762 µM) and the IC50 ([3]; Mus musculus, Macrophage) was 27 µM. The IC90 [1, 5] was 0.0693 µg/mL, the “CSI (C2A/W2)” value [1] was 7.8 and the IC90 (P. falciparum strain W2) was 0.00885 µg/mL (≈ 0.0205 µM).

Compound `OC(CNCCc1ccccc1)c1cc(C(F)(F)F)nc2c(C(F)(F)F)cccc12` (racemic) [compound 308253] has an IC90 [2] of 0.0229 µg/mL (≈ 0.0536 µM), an IC90 (P. falciparum strain D6) of 0.0191 µg/mL (≈ 0.0446 µM) and an IC50 ([3]; Mus musculus, Macrophage) of 22.5 µM. The IC90 [1, 5] was 0.0425 µg/mL, the “CSI (C2A/W2)” value [1] was 9.0 and the IC90 (P. falciparum strain W2) was 0.00472 µg/mL (≈ 0.011 µM).

`CCN(CC)CC(O)c1cc(C(F)(F)F)nc2c(C(F)(F)F)cccc12` (racemic) [compound 308254] was tested, and the IC90 [2] was 0.0365 µg/mL (≈ 0.096 µM), the IC90 (P. falciparum strain D6) was 0.0264 µg/mL (≈ 0.0694 µM) and the IC50 ([3]; Mus musculus, Macrophage) was 5.5 µM. For the same compound, the IC90 [1, 5] was 0.0669 µg/mL, the “CSI (C2A/W2)” value [1] was 7.4 and the IC90 (P. falciparum strain W2) was 0.00901 µg/mL (≈ 0.0237 µM).

In the case of `OC(CN1CCCC1)c1cc(C(F)(F)F)nc2c(C(F)(F)F)cccc12` (racemic) [compound 308268], the “PF C235 IC90” value ([2]; P. falciparum TM91C235) is reported as 0.04519 µg/mL, the “PF D6 IC90” value (P. falciparum strain D6; P. falciparum D6) is reported as 0.04702 µg/mL and the IC50 ([3]; RAW macrophages, range in brackets) is reported as 8.5 µM. The “PF C2A IC90” value ([1]; P. falciparum TM90C2A) was 0.09268 µg/mL, the IC90 ([1]; calculated from ng/ml IC90 with MW in Column C, read-out: Pf C2A IC90 nM values calculated using MW in Column C) was 245 nM and the “CSI (C2A/W2)” value [1] was 7.7. The “PF W2 IC90” value (P. falciparum strain W2; P. falciparum W2) was 0.01205 µg/mL.

`CC(C)N(CC(O)c1cc(C(F)(F)F)nc2c(C(F)(F)F)cccc12)C(C)C` (racemic) [compound 308277] gave an IC90 [2] of 0.0209 µg/mL (≈ 0.0512 µM), an IC90 (P. falciparum strain D6) of 0.0195 µg/mL (≈ 0.0477 µM) and an IC50 ([3]; Mus musculus, Macrophage) of 81.2 µM. For the same compound, the IC90 [1, 5] was 0.0305 µg/mL, the “CSI (C2A/W2)” value [1] was 6.7 and the IC90 (P. falciparum strain W2) was 0.00452 µg/mL (≈ 0.0111 µM).
